ChEMBL document CHEMBL5380795, “Design, Synthesis, and Bioactivity Investigation of Cyclic Lipopeptide Antibiotics Containing Eight to Nine Amino Acids” (J Med Chem, 2023)
In brackets after ≈: the same amount, converted by molar mass.

Columns and labels:
[1] = system: Acinetobacter baumannii; experiment: Antibacterial activity against oxacillinase-27 producing Acinetobacter baumannii NCTC 13304 assessed as inhibition of bacterial growth incubated for 18 to 24 hrs by broth microdilution method; type: functional; conditions: time 18-24 hrs
[2] = system: Staphylococcus aureus; experiment: Antibacterial activity against Staphylococcus aureus ATCC 29213 assessed as inhibition of bacterial growth incubated for 18 to 24 hrs by broth microdilution method; type: functional; conditions: time 18-24 hrs
[3] = system: Klebsiella pneumoniae; experiment: Antibacterial activity against carbapenem resistant Klebsiella pneumoniae clinical isolate 19-17 assessed as inhibition of bacterial growth incubated for 18 to 24 hrs by broth microdilution method; type: functional; conditions: time 18-24 hrs
[4] = system: Klebsiella pneumoniae; experiment: Antibacterial activity against carbapenem resistant Klebsiella pneumoniae clinical isolate 19-15 assessed as inhibition of bacterial growth incubated for 18 to 24 hrs by broth microdilution method; type: functional; conditions: time 18-24 hrs
[5] = system: Staphylococcus aureus; experiment: Antibacterial activity against methicillin resistant Staphylococcus aureus ATCC 33591 assessed as inhibition of bacterial growth incubated for 18 to 24 hrs by broth microdilution method; type: functional; conditions: time 18-24 hrs
[6] = system: Escherichia coli; experiment: Antibacterial activity against Escherichia coli ATCC BAA-2523 assessed as inhibition of bacterial growth incubated for 18 to 24 hrs by broth microdilution method; type: functional; conditions: time 18-24 hrs
[7] = system: Escherichia coli; experiment: Antibacterial activity against Escherichia coli clinical isolate 19-2 assessed as inhibition of bacterial growth incubated for 18 to 24 hrs by broth microdilution method; type: functional; conditions: time 18-24 hrs
[8] = system: Klebsiella pneumoniae; experiment: Antibacterial activity against KPC producing Klebsiella pneumoniae ATCC BAA-1705 assessed as inhibition of bacterial growth incubated for 18 to 24 hrs by broth microdilution method; type: functional; conditions: time 18-24 hrs
[9] = system: Pseudomonas aeruginosa; experiment: Antibacterial activity against Pseudomonas aeruginosa clinical isolate 19-1 assessed as inhibition of bacterial growth incubated for 18 to 24 hrs by broth microdilution method; type: functional; conditions: time 18-24 hrs
[10] = Cytotoxicity against human HK-2 cells assessed as inhibition of cell growth incubated for 72 hrs by CCK-8 assay; type: toxicity, cell-based
[11] = system: Staphylococcus epidermidis; experiment: Antibacterial activity against methicillin resistant Staphylococcus epidermidis clinical isolate 19-5 assessed as inhibition of bacterial growth incubated for 18 to 24 hrs by broth microdilution method; type: functional; conditions: time 18-24 hrs
[12] = system: Staphylococcus epidermidis; experiment: Antibacterial activity against methicillin resistant Staphylococcus epidermidis clinical isolate 19-6 assessed as inhibition of bacterial growth incubated for 18 to 24 hrs by broth microdilution method; type: functional; conditions: time 18-24 hrs
[13] = system: Acinetobacter baumannii; experiment: Antibacterial activity against carbapenem resistant Acinetobacter baumannii clinical isolate 19-8 assessed as inhibition of bacterial growth incubated for 18 to 24 hrs by broth microdilution method; type: functional; conditions: time 18-24 hrs
[14] = system: Pseudomonas aeruginosa; experiment: Antibacterial activity against Pseudomonas aeruginosa ATCC 27853 assessed as inhibition of bacterial growth incubated for 18 to 24 hrs by broth microdilution method; type: functional; conditions: time 18-24 hrs
[15] = system: Escherichia coli; experiment: Antibacterial activity against Escherichia coli NCTC 13353 assessed as inhibition of bacterial growth incubated for 18 to 24 hrs by broth microdilution method; type: functional; conditions: time 18-24 hrs
[16] = system: Pseudomonas aeruginosa; experiment: Antibacterial activity against carbapenem resistant Pseudomonas aeruginosa clinical isolate 19-3 assessed as inhibition of bacterial growth incubated for 18 to 24 hrs by broth microdilution method; type: functional; conditions: time 18-24 hrs
[17] = system: Escherichia coli; experiment: Antibacterial activity against KPC producing Escherichia coli ATCC BAA-2340 assessed as inhibition of bacterial growth incubated for 18 to 24 hrs by broth microdilution method; type: functional; conditions: time 18-24 hrs
[18] = system: Pseudomonas aeruginosa; experiment: Antibacterial activity against carbapenem resistant Pseudomonas aeruginosa clinical isolate 17-1 assessed as inhibition of bacterial growth incubated for 18 to 24 hrs by broth microdilution method; type: functional; conditions: time 18-24 hrs
[19] = Selectivity index, ratio of IC50 for cytotoxicity against human HK-2 cells to MIC for antibacterial activity against Escherichia coli ATCC BAA-2523; type: toxicity, cell-based

`CCCCCCCCCC(=O)N[C@H](CCN)C(=O)N[C@H]1CCNC(=O)[C@H](Cc2ccccc2)NC(=O)[C@H](CCN)NC(=O)[C@H](CCN)NC(=O)[C@H](Cc2ccccc2)NC(=O)[C@@H](CC(C)C)NC(=O)[C@H](CCN)NC1=O` showed an MIC [1] of 16 µg/mL (≈ 15.1 µM), an MIC [2] of 8 µg/mL (≈ 7.53 µM) and an MIC [3] of 8 µg/mL (≈ 7.53 µM). The MIC [4] was 8 µg/mL (≈ 7.53 µM), the MIC [5] was 16 µg/mL (≈ 15.1 µM) and the MIC [6] was 8 µg/mL (≈ 7.53 µM). It also gave an MIC [7] of 4 µg/mL (≈ 3.77 µM), an MIC [8] of 1 µg/mL (≈ 0.941 µM) and an MIC [9] of 4 µg/mL (≈ 3.77 µM). The IC50 at 72 h [10] was 43.1 µg/mL (≈ 40.6 µM), the MIC [11] was 1 µg/mL (≈ 0.941 µM) and the MIC [12] was 1 µg/mL (≈ 0.941 µM). For the same compound, the MIC [13] was 16 µg/mL (≈ 15.1 µM), the MIC [14] was 8 µg/mL (≈ 7.53 µM) and the MIC [15] was 8 µg/mL (≈ 7.53 µM). It also gave an MIC [16] of 4 µg/mL (≈ 3.77 µM), an MIC [17] of 8 µg/mL (≈ 7.53 µM) and an MIC [18] of 8 µg/mL (≈ 7.53 µM). The selectivity ratio [19] was 5.4.

For `CCCCCCCCCC(=O)N[C@H](CCN)C(=O)N[C@H]1CCCNC(=O)[C@H]([C@@H](C)O)NC(=O)[C@H](CCN)NC(=O)[C@H](CCN)NC(=O)[C@H](CC(C)C)NC(=O)[C@@H](CC(C)C)NC(=O)[C@H](CCN)NC1=O`, the MIC [1] was over 64 µg/mL, the MIC [2] was over 64 µg/mL and the MIC [3] was 64 µg/mL (≈ 64.2 µM). It also gave an MIC [4] of 16 µg/mL (≈ 16.1 µM), an MIC [5] of over 64 µg/mL and an MIC [6] of 16 µg/mL (≈ 16.1 µM). The MIC [7] was 16 µg/mL (≈ 16.1 µM), the MIC [8] was 16 µg/mL (≈ 16.1 µM) and the MIC [9] was 4 µg/mL (≈ 4.01 µM). For the same compound, the IC50 at 72 h [10] was 158 µg/mL (≈ 159 µM), the MIC [11] was 4 µg/mL (≈ 4.01 µM) and the MIC [12] was 32 µg/mL (≈ 32.1 µM). For the same compound, the MIC [13] was over 64 µg/mL, the MIC [14] was 4 µg/mL (≈ 4.01 µM) and the MIC [15] was 32 µg/mL (≈ 32.1 µM). The MIC [16] was 2 µg/mL (≈ 2.01 µM), the MIC [17] was 16 µg/mL (≈ 16.1 µM) and the MIC [18] was 4 µg/mL (≈ 4.01 µM). For the same compound, the selectivity ratio [19] was 9.9.

For `CCCCCCCCCC(=O)N[C@H](CCN)C(=O)N[C@H]1CCNC(=O)[C@H](CC(C)C)NC(=O)[C@H](CCN)NC(=O)[C@H](CCN)NC(=O)[C@H](Cc2ccccc2)NC(=O)[C@@H](Cc2ccccc2)NC(=O)[C@H](CCN)NC1=O`, the MIC [1] was 16 µg/mL (≈ 15.1 µM), the MIC [2] was 8 µg/mL (≈ 7.53 µM) and the MIC [3] was 16 µg/mL (≈ 15.1 µM). The MIC [4] was 8 µg/mL (≈ 7.53 µM), the MIC [5] was 32 µg/mL (≈ 30.1 µM) and the MIC [6] was 8 µg/mL (≈ 7.53 µM). The MIC [7] was 8 µg/mL (≈ 7.53 µM), the MIC [8] was 16 µg/mL (≈ 15.1 µM) and the MIC [9] was 4 µg/mL (≈ 3.77 µM). For the same compound, the IC50 at 72 h [10] was 32.2 µg/mL (≈ 30.3 µM), the MIC [11] was 1 µg/mL (≈ 0.941 µM) and the MIC [12] was 1 µg/mL (≈ 0.941 µM). For the same compound, the MIC [13] was 16 µg/mL (≈ 15.1 µM), the MIC [14] was 8 µg/mL (≈ 7.53 µM) and the MIC [15] was 8 µg/mL (≈ 7.53 µM). The MIC [16] was 4 µg/mL (≈ 3.77 µM), the MIC [17] was 2 µg/mL (≈ 1.88 µM) and the MIC [18] was 8 µg/mL (≈ 7.53 µM). For the same compound, the selectivity ratio [19] was 4.

With `CCCCCCCCCC(=O)N[C@H](CCN)C(=O)N[C@H]1CCNC(=O)[C@H]([C@@H](C)O)NC(=O)[C@H](CCN)NC(=O)[C@H](CCN)NC(=O)[C@H](CC(C)C)NC(=O)[C@@H](Cc2cccc(Cl)c2)NC(=O)[C@H](CCN)NC1=O` the MIC [1] was 16 µg/mL (≈ 15.2 µM), the MIC [2] was 32 µg/mL (≈ 30.5 µM) and the MIC [3] was 4 µg/mL (≈ 3.81 µM). The MIC [4] was 4 µg/mL (≈ 3.81 µM), the MIC [5] was 64 µg/mL (≈ 60.9 µM) and the MIC [6] was 2 µg/mL (≈ 1.9 µM). The MIC [7] was 2 µg/mL (≈ 1.9 µM), the MIC [8] was 2 µg/mL (≈ 1.9 µM) and the MIC [9] was 2 µg/mL (≈ 1.9 µM). It also gave an IC50 at 72 h [10] of 42.5 µg/mL (≈ 40.4 µM), an MIC [11] of 2 µg/mL (≈ 1.9 µM) and an MIC [12] of 2 µg/mL (≈ 1.9 µM). It also gave an MIC [13] of 16 µg/mL (≈ 15.2 µM), an MIC [14] of 32 µg/mL (≈ 30.5 µM) and an MIC [15] of 4 µg/mL (≈ 3.81 µM). For the same compound, the MIC [16] was 2 µg/mL (≈ 1.9 µM), the MIC [17] was 1 µg/mL (≈ 0.952 µM) and the MIC [18] was 32 µg/mL (≈ 30.5 µM). The selectivity ratio [19] was 21.3.

`CCCCCCCCCC(=O)N[C@H](CCN)C(=O)N[C@H]1CCNC(=O)[C@H]([C@@H](C)O)NC(=O)[C@H](CCN)NC(=O)[C@H](CCN)NC(=O)[C@H](CC(C)C)NC(=O)[C@@H](CC(C)C)NC(=O)[C@H](CCCCN)NC1=O` showed an MIC [1] of over 64 µg/mL, an MIC [2] of over 64 µg/mL and an MIC [3] of over 64 µg/mL. It also gave an MIC [4] of over 64 µg/mL, an MIC [5] of over 64 µg/mL and an MIC [6] of over 64 µg/mL. For the same compound, the MIC [7] was over 64 µg/mL, the MIC [8] was over 64 µg/mL and the MIC [9] was over 64 µg/mL. The IC50 at 72 h [10] was 196 µg/mL (≈ 193 µM), the MIC [11] was 8 µg/mL (≈ 7.92 µM) and the MIC [12] was 32 µg/mL (≈ 31.7 µM). For the same compound, the MIC [13] was over 64 µg/mL, the MIC [14] was over 64 µg/mL and the MIC [15] was over 64 µg/mL. For the same compound, the MIC [16] was over 64 µg/mL, the MIC [17] was over 64 µg/mL and the MIC [18] was over 64 µg/mL. The selectivity ratio [19] was under 3.1.
